According to paper PMC7069976, “Improved secretion of glycoproteins using an N-glycan-restricted passport sequence tag recognized by cargo receptor” (Nature Communications, 2020):
One block for each substance: values may come before it.

Tests used:
HCT116 cells = experiment: α1-antitrypsin (AAT) secretion level (ELISA) from HCT116 cells; format: cell-based
Text: (§1) For expression of the FVIII and FV full-length and deletion mutant proteins in mammalian cells, the codon-optimized FVIII and FV genes were inserted into the p3XFLAG-CMV-14 Expression Vector and p3XFLAG-CMV-9 Expression Vector, respectively (Sigma-Aldrich, St. Louis, MO). For the expression of the wild-type and mutated AAT, EPO, and sFγRIIIa in mammalian cells, the corresponding genes (purchased from FASMAC Co., Ltd., Atsuki, Japan) were inserted into the p3XFLAG-CMV-9 Expression Vector (Sigma-Aldrich).
HCT116 and its mutated cells as well as HEK293T were maintained in Dulbecco’s modified Eagle’s medium (DMEM) supplemented with 10% fetal bovine serum in 5% CO2 at 37 °C. For complementary DNA (cDNA) transfection, cells were grown overnight and transfected using Polyethylenimine “Max” (Polysciences Inc.) as described previously. Expi293F cells (Thermo Fisher Scientific, Waltham, MA) were maintained in Expi293 Expression Medium (Thermo Fisher Scientific) in 5% CO2 at 37 °C on an orbital shaker platform rotating at 125 r.p.m. For cDNA transfection, cells were transfected with the ExpiFectamine 293 Transfection Kit (Thermo Fisher Scientific Inc.). Protein expression was performed in serum-free medium.
(§2) The secreted levels of FVIII and FV antigens in the culture medium were determined with an sandwich enzyme-linked immunosorbent assay (ELISA) method using the VisuLize FVIII Antigen Kit (Affinity Biologicals Inc., Ancaster, ON) and the Asssay Max™ Human Factor V ELISA Kit (ASSAYPRO, MO), respectively. The secreted levels of AAT and EPO antigens in the culture medium were determined with an ELASA method using the anti-AAT antibody (Agilent, Santa Clara, CA) and anti-Flag M2 antibody (Sigma-Aldrich), respectively.

MCFD2 [1] = molecular target: T1, MCFD2 (Homo sapiens, UniProt Q8NI22); experiment: NMR chemical shift perturbation of [15N]MCFD2 upon peptide addition; format: binding
T1 construct: The preparation of ERGIC-53^CRD, MCFD2, and their complexes was performed as previously described; made in house
T1 sequence (Q8NI22 27-146): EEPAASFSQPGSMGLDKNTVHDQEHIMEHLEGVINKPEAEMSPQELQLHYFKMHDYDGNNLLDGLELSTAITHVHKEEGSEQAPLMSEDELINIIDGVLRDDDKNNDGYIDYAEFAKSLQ

[2] = molecular target: T2, MCFD2/ERGIC-53^CRD complex (Homo sapiens, UniProt P49257+Q8NI22); experiment: NMR titration (peak attenuation) of [15N]FVIII-derived peptide with MCFD2/ERGIC-53CRD; format: binding
T2 construct: made in house
T2 sequence (Q8NI22 27-146): T1 sequence (Q8NI22 27-146)
T2 sequence (P49257 44-267 partner limits assumed): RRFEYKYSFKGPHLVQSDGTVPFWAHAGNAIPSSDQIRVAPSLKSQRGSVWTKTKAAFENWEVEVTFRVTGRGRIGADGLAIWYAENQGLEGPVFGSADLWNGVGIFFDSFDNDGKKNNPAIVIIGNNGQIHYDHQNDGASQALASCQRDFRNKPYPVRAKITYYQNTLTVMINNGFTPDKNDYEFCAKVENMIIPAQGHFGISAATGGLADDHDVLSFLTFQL
Protocol: (§3) The preparation of ERGIC-53^CRD, MCFD2, and their complexes was performed as previously described[16],[18]. FVIII fragment (Asn776–Asp838) was prepared using the protocol described previously. The DNA fragment encoding residues Asn776–Asp838 of FVIII was cloned into the ubiquitin (Ub)-fused pET28a plasmid. The peptide fragment was expressed as a Ub-fused protein in Luria–Bertani broth or M9 minimal medium supplemented with [^15N]NH4Cl and/or [^13C]glucose for NMR experiments. The Ub-fused FVIII peptide was purified with immobilized Ni^2+-affinity chromatography and then digested with Ub carboxyl-terminal hydrolase (YUH1). The resultant peptide was purified by reversed-phase chromatography.
(§4) NMR measurements were performed using AVANCE 800 and AVANCE 500 spectrometers each equipped with a 5-mm triple-resonance cryogenic probe (Bruker BioSpin, Fallanden, Switzerland). The NMR data were processed and analyzed using TopSpin (Bruker BioSpin) and SPARKY software.
(§5) The chemical shifts of the FVIII fragment (Asn776–Asp838) were assigned by a standard protocol[18],[25]. To obtain the dissociation constant based on NMR peak attenuation, 0.1 mM [^15N]FVIII fragment was titrated with 0.02–0.3 mM of MCFD2/ERGIC-53^CRD or MCFD2 only in 20 mM 2-(N-morpholino) ethanesulfonic acid (MES; pH 6.0) containing 10 mM CaCl2, 150 mM NaCl, and 10% (v/v) D2O. […]

MCFD2 [3] = molecular target: T1, MCFD2; experiment: NMR titration (peak attenuation) of [15N]FVIII-derived peptide with MCFD2 only; format: binding; details: absence of ERGIC-53CRD, 0.1 mM [15N]FVIII fragment, 0.02–0.3 mM MCFD2, 20 mM MES pH 6.0, 10 mM CaCl2, 150 mM NaCl, 10% D2O, read-out: dissociation constant
Protocol: as §3, §4, §5

COS-7 cells = experiment: FV secretion level (ELISA) from COS-7 cells; format: cell-based
Text: as §1, §2

MCFD2 [4] = molecular target: T1, MCFD2; details: Arg44–His56; cited from earlier work

Substance: AAT: human α1-antitrypsin, three N-glycosylation sites
- AAT secretion level, average (HCT116 cells; HCT116, Average, n = 3 independent transfections, AAT = 1): 1
- AAT secretion level (HCT116 cells; HCT116, replicate 1): 1.145
- AAT secretion level (HCT116 cells; HCT116, replicate 2): 1.033
- AAT secretion level (HCT116 cells; HCT116, replicate 3): 0.8224

Substance: ATZ-mutant: ATZ-mutant of alpha 1-antitrypsin, with or without C-terminal SDLLMLLRQS motif
- ATZ-mutant secretion with vs without C-terminal motif (HCT116 cells; ATZ-mutant of alpha1-antitrypsin, HCT116, ELISA, n = 3): did not observe significant difference

Substance: DPPSDLLLLKQSNSSKILVGRWHLASEK
- interaction of FV-derived peptide with MCFD2 (MCFD2 [1]; two molar equivalents, with vs without ERGIC-53CRD-derived peptide, pH 6.0, 2% DMSO-d6, 303 K): interacts with the EF-hand helices of MCFD2 in an ERGIC-53^CRD-dependent manner

- Kd ([2]; NMR peak attenuation, 0.1 mM [15N]FVIII fragment titrated with 0.02–0.3 mM MCFD2/ERGIC-53CRD, 20 mM MES pH 6.0, 10 mM CaCl2, 150 mM NaCl, 10% D2O, read-out: dissociation constant): 11 µM
- Kd (MCFD2 [3]): 120 µM
Substance: DPPSDLLLLKQSNSSKILVGRWHLASEK [FVIII-derived peptide, FVIII fragment residues Asn776–Asp838, expressed as Ub-fused protein and cleaved with YUH1]
- attenuation of NMR peak intensities upon addition of MCFD2/ERGIC-53CRD ([2]; 15N-labeled peptide 0.1 mM, one molar equivalent, pH 6.0, 283 K): significant attenuation in peak intensities for the region spanning residues 806–819
- chemical shift changes of MCFD2 induced by FVIII-derived peptide (MCFD2 [1]; two molar equivalents of peptide, with vs without five equivalents ERGIC-53CRD-derived tridecapeptide, pH 6.0, 303 K): markedly enhanced spectral changes in the presence of the ERGIC-53-derived tridecapeptide

Substance: FV: recombinant wild-type factor V
- FV secretion level (Supplementary Fig. 7B), average (COS-7 cells; Average, n = 3, FV = 1): 1
- FV secretion level (Supplementary Fig. 7B) (COS-7 cells; replicate 1): 1.05
- FV secretion level (Supplementary Fig. 7B) (COS-7 cells; replicate 2): 0.9799
- FV secretion level (Supplementary Fig. 7B) (COS-7 cells; replicate 3): 0.9702

Substance: RRFEYKYSFKGPH
- chemical shift changes of MCFD2 induced by ERGIC-53CRD-derived tridecapeptide (MCFD2 [4]): induces widespread chemical shift changes of MCFD2
